Test results taken from US7183252B2, “Indole peptidomimetics as thrombin receptor antagonists” (Ortho-McNeil Pharmaceutical, Inc., priority 1999, dated 2007).
pIC50: −log10 of the molar value. Where two headings read alike, the source gives them in different places.

Legend:
gel-filtered platelets = test: In vitro inhibition of thrombin-induced gel-filtered platelet aggregation; assay type: cell-based; details: human gel-filtered platelets, agonist thrombin 50 μL of 1 unit/mL, read-out: Thrmb IC50 (Thrombin-induced aggregation of gel-filtered platelets)
Procedure, shortened: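 Gel-filtered (Sepharose 2B) human platelets from citrated PRP, 2×10^7 per sample, in Tyrode's buffer pH 7.4 with BSA and added calcium, preincubated with test compound. Aggregation induced by thrombin (50 μL of 1 unit/mL) and followed as light transmission over 3 min. Inhibition is taken relative to control-treated platelets.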

[1] = target: T1, thrombin receptor (PAR-1) (Homo sapiens, UniProt P25116); test: In vitro thrombin receptor binding assay (CHRF membranes); details: tritiated 721-40 radioligand, read-out: Bndg IC50 (Thrombin receptor binding)
T1 construct: CHRF membranes (Jones, Biochim. Biophys. Acta 1992, 1136, 272) are thawed from −70° C; endogenous in cells; host or cells: CHRF cell membranes
T1 sequence (P25116 22-425): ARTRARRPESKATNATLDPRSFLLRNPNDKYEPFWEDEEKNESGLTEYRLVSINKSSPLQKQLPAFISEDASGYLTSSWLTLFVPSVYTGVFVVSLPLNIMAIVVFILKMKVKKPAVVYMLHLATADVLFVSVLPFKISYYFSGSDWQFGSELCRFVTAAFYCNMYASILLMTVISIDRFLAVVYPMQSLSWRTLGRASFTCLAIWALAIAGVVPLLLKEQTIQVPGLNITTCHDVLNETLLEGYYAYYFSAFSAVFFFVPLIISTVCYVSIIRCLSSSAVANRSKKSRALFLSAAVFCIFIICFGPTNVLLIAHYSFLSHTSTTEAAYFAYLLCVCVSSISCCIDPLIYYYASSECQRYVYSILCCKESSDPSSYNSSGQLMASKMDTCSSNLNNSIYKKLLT
Procedure, shortened: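 CHRF cell membranes incubated 30 min with tritiated peptide agonist 721–40 and compound at 3.7 μg/mL final (0.6% DMSO) in HEPES/MgCl2/BSA buffer. Nonspecific binding defined with unlabeled 721–40; bound radioactivity counted after filtration onto PEI-treated filters.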

| Structure (SMILES) | pIC50 (gel-filtered platelets; Platelet) | pIC50 [1] | pIC50 (gel-filtered platelets) |
| --- | --- | --- | --- |
| COc1ccc(C[C@H](NC(=O)Nc2ccc3c(CNCCCN4CCCC4)cn(Cc4ccc(F)cc4)c3c2)C(=O)N[C@@H](CCCNC(=N)N)C(=O)NCc2ccccc2)cc1 [Compound 33] | 4.26 | 5.27 | – |
| N=C(N)NCCC[C@H](NC(=O)[C@@H]1CCCN1C(=O)Nc1ccc2c(CN3CCCC3)cn(Cc3c(Cl)cccc3Cl)c2c1)C(=O)NCc1ccccc1 [Compound 107] | 5.74 | 5.10 | – |
| O=C(Nc1ccc2c(CN3CCCC3)cn(Cc3c(Cl)cccc3Cl)c2c1)N[C@@H](Cc1ccc(F)c(F)c1)C(=O)N[C@@H](Cc1ccncc1)C(=O)NCc1ccccc1 [Compound 105] | 6.19 | 5.12 | – |
| CCN(CC)Cc1cn(Cc2ccccc2C)c2cc(NC(=O)N[C@@H](Cc3ccc(N)cc3)C(=O)N[C@@H](CCCNC(=N)N)C(=O)NCc3ccccc3)ccc12 [Compound 35] | 4.89 | 4.88 | – |
| NCC[C@H](NC(=O)[C@H](CCc1ccccc1)NC(=O)Nc1ccc2c(CN3CCCC3)cn(Cc3c(Cl)cccc3Cl)c2c1)C(=O)NCc1ccccc1 [Compound 128] | 4.73 | 5.47 | – |
| Cc1ccccc1Cn1cc(CN2CCCC2)c2ccc(NC(=O)N[C@@H](Cc3cccnc3)C(=O)N[C@@H](CCCNC(=N)N)C(=O)NCc3ccccc3)cc21 [Compound 31] | < 5.00 | 5.08 | – |
| Cc1ccccc1Cn1cc(CN2CCCC2)c2ccc(NC(=O)N[C@@H](Cc3ccc(F)c(F)c3)C(=O)N[C@@H](CCCNC(=N)N)C(=O)NCCc3ccccc3)cc21 [Compound 57] | 5.74 | 6.52 | – |
| NC(N)=NCCC[C@H](NC(=O)[C@H](CCc1ccccc1)NC(=O)Nc1ccc2c(CN3CCCC3)cn(Cc3ccc(F)cc3)c2c1)C(=O)NCc1ccccc1 [Compound 27] | 4.56 | 4.84 | – |
| COc1ccc(C[C@H](NC(=O)Nc2ccc3c(CN4CCCC4)cn(Cc4cccc(OC)c4)c3c2)C(=O)N[C@@H](CCCNC(=N)N)C(=O)NCc2ccccc2)cc1 [Compound 16] | 4.59 | 4.94 | – |
| COc1ccc(C[C@H](NC(=O)Nc2ccc3c(CN4CCCC4)cn(Cc4ccc(I)cc4)c3c2)C(=O)N[C@@H](CCCNC(=N)N)C(=O)NCc2ccccc2)cc1 [Compound 23] | 5.07 | 5.51 | – |
| NCC[C@H](NC(=O)[C@H](Cc1cscn1)NC(=O)Nc1ccc2c(CN3CCCC3)cn(Cc3c(Cl)cccc3Cl)c2c1)C(=O)NCc1ccccc1 [Compound 132] | 4.66 | 5.38 | – |
| NCCC[C@H](NC(=O)[C@H](Cc1ccc(F)c(F)c1)NC(=O)Nc1ccc2c(CN3CCCC3)cn(Cc3c(Cl)cccc3Cl)c2c1)C(=O)NCc1ccc(Cl)c(Cl)c1 [Compound 112] | 6.03 | 5.70 | – |
| NCCC[C@H](NC(=O)[C@H](Cc1ccc(F)c(F)c1)NC(=O)Nc1ccc2c(CN3CCCC3)cn(Cc3c(Cl)cccc3Cl)c2c1)C(=O)Nc1ccccc1 [Compound 127] | 6.03 | 5.62 | – |
| COCC[C@H](NC(=O)[C@H](Cc1ccc(F)c(F)c1)NC(=O)Nc1ccc2c(CN3CCCC3)cn(Cc3c(Cl)cccc3Cl)c2c1)C(=O)NCCN [Compound 156] | 6.22 | 7.40 | – |
| N=C(N)NCCC[C@H](NC(=O)[C@@H]1Cc2ccccc2CN1C(=O)Nc1ccc2c(CN3CCCC3)cn(Cc3ccc(F)cc3)c2c1)C(=O)NCc1ccccc1 [Compound 30] | < 5.00 | 5.05 | – |
| N=C(N)NCCC[C@H](NC(=O)Nc1ccc2c(CN3CCCC3)cn(Cc3c(Cl)cccc3Cl)c2c1)C(=O)N[C@@H](Cc1ccc(F)c(F)c1)C(=O)NCc1ccccc1 [Compound 80] | 4.95 | 5.23 | – |
| NC(=O)NCCC[C@H](NC(=O)[C@H](Cc1cccc(F)c1)NC(=O)Nc1ccc2c(CN3CCCC3)cn(Cc3c(Cl)cccc3Cl)c2c1)C(=O)NCc1ccccc1 [Compound 77] | 4.53 | 6.21 | – |
| NC(N)=NCCC[C@H](NC(=O)[C@H](Cc1ccc(I)cc1)NC(=O)Nc1ccc2c(CN3CCCCC3)cn(Cc3c(Cl)cccc3Cl)c2c1)C(=O)NCc1ccccc1 [Compound 85] | 5.32 | 5.80 | – |
| COc1ccc(C[C@H](NC(=O)Nc2ccc3c(CN4CCOCC4)cn(Cc4ccc(F)cc4)c3c2)C(=O)N[C@@H](CCCN=C(N)N)C(=O)NCc2ccccc2)cc1 [Compound 40] | < 5.00 | 5.41 | – |

| Structure (SMILES) | pIC50 (gel-filtered platelets; Platelet) | pIC50 [1] | pIC50 (gel-filtered platelets) |
| --- | --- | --- | --- |
| NCCNC(=O)CCNC(=O)[C@H](Cc1ccc(Cl)cc1)NC(=O)Nc1ccc2c(CN3CCCC3)cn(Cc3c(Cl)cccc3Cl)c2c1 [Compound 146] | 4.95 | 5.55 | – |
| NCC[C@H](NC(=O)[C@H](Cc1ccc(F)c(F)c1)NC(=O)Nc1ccc2c(CN3CCSC3)cn(Cc3c(Cl)cccc3Cl)c2c1)C(=O)NCc1ccccc1 [Compound 154] | 4.89 | 6.12 | – |
| NCC[C@H](NC(=O)[C@H](Cc1ccc(Cl)cc1)NC(=O)Nc1ccc2c(CN3CCCC3)cn(Cc3c(Cl)cccc3Cl)c2c1)C(=O)NCc1ccccc1 [Compound 78] | 5.89 | 5.82 | – |
| NCC[C@H](NC(=O)[C@H](Cc1ccc(F)c(F)c1)NC(=O)Nc1ccc2c(CN3CCCC3)cn(Cc3c(Cl)cccc3Cl)c2c1)C(=O)NCCN1CCCC1 [Compound 141] | 6.70 | 7.15 | – |
| C=CCOC(=O)[C@H](CCCN)NC(=O)[C@H](Cc1ccc(F)c(F)c1)NC(=O)Nc1ccc2c(CN3CCCC3)cn(Cc3c(Cl)cccc3Cl)c2c1 [Compound 93] | 6.13 | 6.30 | – |
| Cc1coc(CNC(=O)[C@H](CCN)NC(=O)[C@H](Cc2ccc(F)c(F)c2)NC(=O)Nc2ccc3c(CN4CCCC4)cn(Cc4c(Cl)cccc4Cl)c3c2)c1 [Compound 159] | – | 6.15 | 6.37 |
| COc1ccc(CNC(=O)[C@H](CCCNC(=N)N)NC(=O)[C@H](Cc2ccc(F)c(F)c2)NC(=O)Nc2ccc3c(CN4CCCC4)cn(Cc4c(Cl)cccc4Cl)c3c2)cc1 [Compound 61] | 5.85 | 6.52 | – |
| COc1ccc(C[C@H](NC(=O)Nc2ccc3c(CN4CCCC4)cn(Cc4ccc(F)cc4)c3c2)C(=O)N[C@@H](CCCNC(=N)N)C(=O)NCCCc2ccccc2)cc1 [Compound 4] | 4.83 | 5.89 | – |
| NC(=O)CC[C@H](NC(=O)[C@H](Cc1ccc(F)c(F)c1)NC(=O)Nc1ccc2c(CN3CCCC3)cn(Cc3c(Cl)cccc3Cl)c2c1)C(=O)NCc1ccccc1 [Compound 103] | 6.27 | 5.92 | – |
| N=C(N)NCCC[C@H](NC(=O)[C@H](Cc1ccc(F)c(F)c1)NC(=O)Nc1ccc2c(CN3CCCC3)cn(Cc3c(Cl)cccc3Cl)c2c1)C(=O)NCc1ccncc1 [Compound 62] | 5.90 | 7.52 | – |
| NCCNC(=O)[C@H](CO)NC(=O)[C@H](Cc1ccc(F)c(F)c1)NC(=O)Nc1ccc2c(CN3CCCC3)cn(Cc3c(Cl)cccc3Cl)c2c1 [Compound 150] | 5.85 | 7.00 | – |
| COc1ccc(C[C@H](NC(=O)Nc2ccc3c(c2)c(CN2CCSC2)cn3Cc2ccc(F)cc2)C(=O)N[C@@H](CCCNC(=N)N)C(=O)NCc2ccccc2)cc1 [Compound 163] | 4.52 | 5.52 | – |
| COc1ccc(C[C@H](NC(=O)Nc2ccc3c(CN4CCCC4)cn(Cc4ccccc4)c3c2)C(=O)N[C@@H](CCCNC(=N)N)C(=O)NCc2ccccc2)cc1 [Compound 22] | 5.52 | 5.40 | – |
| NCCNC(=O)[C@H](Cc1ccncc1)NC(=O)[C@H](Cc1ccc(F)c(F)c1)NC(=O)c1ccc2c(CN3CCCC3)cn(Cc3c(Cl)cccc3Cl)c2c1 [Compound 175, L-Alaninamide, N-[[1-[(2,6-dichlorophenyl)methyl]-3-(1-pyrrolidinylmethyl)-1H-indol-6-yl]carbonyl]-3,4-difluoro-L-phenylalanyl-N-(2-aminoethyl)-3-(4-pyridinyl)-] | 5.80 | 7.05 | – |
| CCCCN(CCCC)Cc1cn(Cc2ccccc2C)c2cc(NC(=O)N[C@@H](Cc3cc(F)cc(F)c3)C(=O)N[C@@H](CCCNC(=N)N)C(=O)NCc3ccccc3)ccc12 [Compound 58] | < 5.00 | 5.82 | – |
| N=C(N)NCCC[C@H](NC(=O)[C@H](Cc1ccccc1F)NC(=O)Nc1ccc2c(CN3CCCC3)cn(Cc3c(Cl)cccc3Cl)c2c1)C(=O)NCc1ccccc1 [Compound 51] | 6.17 | 6.10 | – |
| NC(N)=NCCC[C@H](NC(=O)[C@H](Cc1ccc(F)c(F)c1)NC(=O)Nc1ccc2c(CN3CCCC3)cn(Cc3ccc(F)cc3)c2c1)C(=O)NCc1ccco1 [Compound 82] | 5.82 | 6.51 | – |
| COc1ccc(C[C@H](NC(=O)Nc2ccc3c(CN4CCCC4)cn(Cc4ccc(S(C)(=O)=O)cc4)c3c2)C(=O)N[C@@H](CCCNC(=N)N)C(=O)NCc2ccccc2)cc1 [Compound 12] | 4.36 | 4.80 | – |
| Cc1ccccc1Cn1cc(CN2CCCC2)c2ccc(NC(=O)N[C@@H](Cc3ccc(Cl)cc3)C(=O)N[C@@H](CCCNC(=N)N)C(=O)NCc3ccccc3)cc21 [Compound 48] | 6.30 | 5.12 | – |
